pKi: −log10 of the molar value.
Assays:
[1] = molecular target: T1, D1 (Homo sapiens, UniProt P49895); test: Inhibition of D1-catalyzed rT3 deiodination; format: biochemical; details: D1 much more sensitive to inhibition than D3
T1 sequence (P49895 1-249): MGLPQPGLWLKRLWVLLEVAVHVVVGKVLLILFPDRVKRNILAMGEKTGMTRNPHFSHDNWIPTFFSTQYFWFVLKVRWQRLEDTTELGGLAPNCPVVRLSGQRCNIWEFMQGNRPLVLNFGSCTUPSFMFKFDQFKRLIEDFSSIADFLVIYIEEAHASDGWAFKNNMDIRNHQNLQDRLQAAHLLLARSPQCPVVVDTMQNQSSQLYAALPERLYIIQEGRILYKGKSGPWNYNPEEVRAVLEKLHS
Source text: In addition to those specifically disclosed herein, additional D3 inhibitors can be identified by the generation of analogs or derivatives of known inhibitors, which can be used as lead compounds. […] Based upon such differences, lead compounds can be generated that have excellent specificity for specific deiodinases.

[2] = molecular target: T1, D1; details: competitive inhibitor; read-out: Ki, D1-catalyzed rT3 deiodination; cited from earlier work
[3] = molecular target: T2, D3 (Homo sapiens, UniProt P55073); details: read-out: Ki, D3-catalyzed T3 5 deiodination; competitive inhibitor; cited from earlier work
T2 sequence (P55073 1-304): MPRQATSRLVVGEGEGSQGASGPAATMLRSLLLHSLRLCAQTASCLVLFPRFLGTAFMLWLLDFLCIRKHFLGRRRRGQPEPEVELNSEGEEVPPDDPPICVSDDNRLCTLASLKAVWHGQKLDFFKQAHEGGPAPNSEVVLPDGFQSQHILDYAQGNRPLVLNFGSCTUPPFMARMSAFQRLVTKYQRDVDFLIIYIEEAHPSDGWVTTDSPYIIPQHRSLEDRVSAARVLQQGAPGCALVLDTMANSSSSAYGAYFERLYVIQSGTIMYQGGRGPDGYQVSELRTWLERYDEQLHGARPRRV

[4] = test system: D3; details: cited from earlier work
[5] = Wild-type mice made hypothyroid with perchlorate, epididymal fat pad weight; format: in vivo, mouse; details: 0.04% perchlorate for two months, relative weight of epididymal fat pad, P<0.01
Source text: Analysis of relative weights (compared to total body weight) of male epididymal (EPI) and female parametrial white adipose tissue (WAT) indicated a significant reduction in adult D3KO mice (20% reduction in males and 35% in females, P<0.001, see FIG. 1). This reduction was more marked in aged D3KO mice (60%, P<0.001). […] These alterations were not due to the moderate hypothyroidism present in the D3KO mouse, as wild-type mice made hypothyroid with 0.04% perchlorate to a degree similar to that in D3KO mice manifested a 15% increase in EPI WAT weight (P<0.01, FIG. 3). Thus, the decreased adiposity of the D3KO mouse is both unexpected and even more striking in degree.

OC[C@@H](O)[C@@H](O)[C@H](O)[C@@H](O)C=S.[Au] [gold thioglucose]
difference in Ki between D1 and D3 inhibition [1]: approximately 1000 fold
pKi [2]: 8.22
pKi [3]: 5.28

CCC(Cc1c(I)cc(I)c(N)c1I)C(=O)O (stereo not drawn) [iopanoic acid]
D3 inhibitory activity [4]: effectively inhibit D3 activity

O=C(O)CI [iodoacetate]
D3 inhibitory activity [4]: exhibits D3 inhibitory activity

[O-][Cl+3]([O-])([O-])O [perchlorate]
increase in EPI WAT weight [5]: 15%
